Assay results taken from patent publication EP0415456A2, “Xanthine compounds” (priority 1989, dated 1991).
Like-named read-outs stand apart in the source and are kept apart here.

What was measured:
[1] = tested on: Wistar rats; assay: diuretic effect; format: in vivo; conditions: urine collected for 6 hours; for Increase in K⁺ excretion (%) / Increase in Na⁺excretion (%) / Increase in Urine (%): relative to control; for Na⁺/K⁺: relative value of control (control 1.00)
Experimental: Wistar rats (male: 150 - 300 g) were starved for 18 hours prior to the administration of the test compounds. […] Urine was collected for 6 hours after the administration. Urine volume was measured and the electrolytes (Na+ and K+) in the urine were determined with a flame photome[…], Hitachi Ltd., Japan). All parameters are expressed as relative values of control.

[2] = tested on: glycerol-induced renal failure model; assay: renal-protecting effect (glycerol-induced renal failure model); format: in vivo; conditions: male Wistar rats; for suppression of increases of the serum creatinine and of urine-nitrogen: 0.01 - 10 mg/kg i.p., 24 hours after 50% glycerol s.c. (p < 0.05)
Experimental: A renal failure is a state wherein the renal function is lowered and the homeostasis of a body fluid can be no more maintained. It is known that an acute renal failure characteristic of uriniferous tubule disorder is caused by subcutaneous or intramuscular injection of glycerol to rats [Can. J. Physiol.
Male Wistar rats were kept deprived or water for 18 hours, and served for the test. A test compound was intraperitoneally administered to the rats (dosage: 1 mℓ/kg) and the rats were anesthetized with ether and 50% glycerol was subcutaneously administered (dosage: 0.8mℓ/100g) to the rats, pinching the dorsal skin. Twenty four hours after the administration of glycerol, the rats were anesthetized with ether and 5 mℓ of blood were collected from the abdominal aorta. The collected blood was allowed to stand for 30 minutes or longer and then centrifuged at 3,000 rpm for 10 minutes, and the amounts of the serum creatinine and urine-nitrogen (UN) contained in the serum were determined by auto analyzer (Olympus AU510) or measured by a creatinine test Wako (Jaffé method) and UN Test Wako (diacetylmonooxime direct method). Both are manufactured by Wako Pure Chemicals Co.
On the other hand, the left kidneys of the blood-sampled rats were removed and placed in formalin-filled vial bottles, and used as samples for the pathological examination.

[3] = target: T1, Adenosine A₁ Receptor (Cavia porcellus, UniProt P47745); assay: Adenosine A1 receptor binding (3H-CHA binding); parameters: species or system guinea pig; conditions: for Ratio of Ki Values [A₂/A₁]: A₂ Ki (rat corpus striatum) / A₁ Ki (guinea pig cerebrum); for Ki: calculated from Cheng-Prusoff's equation, ³H-CHA; for Ki / inhibition at 100 µM / inhibition at 10 µM: guinea pig cerebrum; for inhibition at 100 µM: concentration of tested compound 10⁻⁴ M; for inhibition at 100 µM / inhibition at 10 µM: ³H-CHA 1.1 nM; for inhibition at 10 µM: concentration of tested compound 10⁻⁵ M
T1 construct: from tissue; host or cells: guinea pig cerebrum membrane preparation
T1 sequence (P47745 1-326): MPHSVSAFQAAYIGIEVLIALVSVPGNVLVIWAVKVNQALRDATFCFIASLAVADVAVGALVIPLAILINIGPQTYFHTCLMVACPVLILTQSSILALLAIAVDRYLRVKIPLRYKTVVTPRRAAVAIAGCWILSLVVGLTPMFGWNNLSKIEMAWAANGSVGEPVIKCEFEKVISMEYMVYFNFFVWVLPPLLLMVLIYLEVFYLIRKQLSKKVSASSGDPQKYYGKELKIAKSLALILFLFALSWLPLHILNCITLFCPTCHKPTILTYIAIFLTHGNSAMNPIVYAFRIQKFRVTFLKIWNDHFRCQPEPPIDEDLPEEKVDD
Experimental: Cerebrum of a guinea pig was suspended into ice cooled 50 mM tris hydroxymethyl aminomethane hydrochloride (Tris HCl) buffer (pH = 7.7), by using Polytron homogenizer (manufactured by Kinematica Co.). The suspension was centrifuged (50,000 x g, 10 minutes), and the precipitate was resuspended by adding the same volume of 50 mM Tris HCl buffer. The suspension was centrifuged under the same conditions, and the precipitate obtained was suspended once again by adding 10 volumes of 50 mM Tris HCl. The tissue suspension was incubated at 37°C for 30 minutes in the presence of 0.02 units/mg tissue of adenosine deaminase (manufactured by Sigma Co.). The resulting tissue suspension was recentrifuged (50,000 x g, 10 minutes), and 50 mM Tris HCl was added to the precipitate to adjust the concentration of tissue to 10 mg (wet weight)/mℓ.
The mixture was incubated at 25°C for 90 minutes, and the resulting reaction was stopped by rapid vacuum filtration through a glass fiber filter (GF/C manufactured by Whatman Co.) followed by immediately washing three times with 5 mℓ each of ice cold 50 mM Tris HCl buffer. […] Its radioactivity was then determined by a scintillation counter (manufactured by Packard Instrument Co.).
The inhibition rate of the test compounds against the binding of A₁ […] (³H-CHA binding) was calculated from the following equation: [formula]
• 1. […] The inhibition constant (Ki value) shown in the table was calculated from Cheng-Prusoff's equation.

[4] = target: T2, A₂ receptor (Rattus norvegicus, UniProt P30543); assay: Adenosine A2 receptor binding (3H-NECA binding); conditions: for inhibition at 10 µM / inhibition at 100 µM: read-out: A₂ Receptor Inhibition (%)
T2 construct: A precipitate was prepared from rat corpus striatum; from tissue; host or cells: rat corpus striatum membrane preparation
T2 sequence (P30543 whole entry): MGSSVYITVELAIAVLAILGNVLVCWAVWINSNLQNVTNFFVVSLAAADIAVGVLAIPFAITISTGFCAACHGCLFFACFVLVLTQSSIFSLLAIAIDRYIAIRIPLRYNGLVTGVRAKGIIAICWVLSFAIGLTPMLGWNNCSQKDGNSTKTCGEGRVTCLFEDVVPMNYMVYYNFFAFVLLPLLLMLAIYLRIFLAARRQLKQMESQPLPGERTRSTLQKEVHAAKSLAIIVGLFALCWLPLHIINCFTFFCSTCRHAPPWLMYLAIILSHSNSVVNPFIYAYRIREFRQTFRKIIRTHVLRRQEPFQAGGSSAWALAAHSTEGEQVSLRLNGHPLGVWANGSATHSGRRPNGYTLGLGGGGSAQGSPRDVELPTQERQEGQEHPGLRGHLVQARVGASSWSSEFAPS
Experimental: A precipitate was prepared from rat corpus striatum in a similar manner as in 1) above. The precipitate was suspended by adding a 50 mM Tris HCl buffer containing 10 mM magnesium chloride and 0.02 unit/mg (tissue) of adenosine deaminase (manufactured by Sigma Co.) to adjust the concentration of tissue to 5 mg (wet weight)/mℓ.
The mixture was incubated at 25°C within 120 minutes. The resulting mixture was treated in the same manner as in 1) above to determine its radioactivity.
The inhibition rate of the test compound against the binding of A₂ receptor (³H-NECA binding) was calculated from the following equation: [formula]

[5] = tested on: male dd-strain mice; assay: acute toxicity test; format: in vivo; conditions: mouse, in vivo, 10080 min
Experimental: […]. The Minimum lethal dose (MLD) of the compounds was determined by observing whether or not the mice were alive after 7 days of the administration.

[6] = ³H-NECA with CPA, rat corpus striatum, read-out: A₂ Receptor Ki
[7] = amount of the administration 6.25 mg.kg, oral

| Compound | Increase in K⁺ excretion (%) ([1]; 25 mg/kg oral) | Increase in Na⁺excretion (%) ([1]; 25 mg/kg oral) | Increase in Urine (%) ([1]; 25 mg/kg oral) | Na⁺/K⁺ ([1]; 25 mg/kg oral) | suppression of increases of the serum creatinine and of urine-nitrogen [2] | Ratio of Ki Values [A₂/A₁] [3] | Ki [3] [nM] | inhibition at 100 µM [3] [%] | inhibition at 10 µM [3] [%] | inhibition at 10 µM [4] [%] | inhibition at 100 µM [4] [%] | Ki [4, 6] [nM] | other results |
| --- | --- | --- | --- | --- | --- | --- | --- | --- | --- | --- | --- | --- | --- |
| 8-[(1R*,2R*,5S*)-Bicyclo[2.2.1]heptan-2-yl]methyl-1,3-dipropylxanthine [Compound 16] | 38 | 191 | 141 | 2.12 | significantly suppressed | – | – | – | – | – | – | – | pathological examination of removed kidneys: state of kidneys ([2]; i.p., left kidney removed 24 hours after 50% glycerol s.c.): significantly improved |
| CCCn1c(=O)c2[nH]c([C@H]3CC[C@H]4CCC[C@H]43)nc2n(CCC)c1=O (relative stereo) [Compound 6, 8-[(1R*,2S*,5R*)-bicyclo[3.3.0]oxtan-2-yl]-1,3-dipropylxanthine] | – | – | – | – | – | 112 | 5 | 101 | 100 | 70 | 85 | 560 | Increase in K⁺ excretion (%) [1, 7]: 87%; Increase in Na⁺excretion (%) [1, 7]: 252%; Increase in Urine (%) [1, 7]: 330%; Na⁺/K⁺ [1, 7]: 1.88 |
| CCCn1c(=O)c2c(nc([C@@H]3CC[C@H]4CCC[C@H]43)n2C)n(CCC)c1=O (relative stereo) [Compound 18, 8-[(1R*,2R*,5R*)-Bicyclo[3.3.0]octan-2-yl]-1,3-dipropyl-7-methylxanthine] | – | – | – | – | – | – | – | – | – | – | – | – | Minimum lethal dose (MLD) [5]: more than 300 mg/kg |
| Cn1c(=O)c2[nH]cnc2n(C)c1=O [Aminophylline, reference compound] | 17 | 89 | 34 | 1.62 | weak effect | – | – | – | – | – | – | – | – |
| Nc1nc2ccc(Cl)cc2c2nc(-c3ccco3)nn12 [CGS 15943, reference compound] | – | – | – | – | – | – | – | – | – | 99 | 97 | – | Ki [4]: 0.73 nM |
| CCCn1c(=O)c2nc(CC34CC5CC(CC(C5)C3)C4)[nH]c2n(CCC)c1=O [Compound 15, 8-(Adamantan-1-yl)methyl-1,3-dipropylxanthine] | – | – | – | – | – | – | – | – | – | – | – | – | Minimum lethal dose (MLD) [5]: more than 300 mg/kg |
| CCn1c(=O)c2[nH]c(C34CC5CC(CC3C5)C4)nc2n(CC)c1=O [Compound 28, 8-(Noradamantan-3-yl)-1,3-diethylxanthine] | – | – | – | – | – | 132 | 7.1 | 101 | 100 | 61 | 78 | 940 | – |
| CCCCn1c(=O)c2[nH]c(C34CC5CC(CC3C5)C4)nc2n(CCCC)c1=O [Compound 29, 8-(Noradamantan-3-yl)-1,3-dibutylxanthine] | 65 | 137 | 123 | 1.43 | – | 107 | 9.1 | 100 | 100 | 72 | 78 | 970 | – |
| CC(C)Cn1c(=O)n(C)c(=O)c2[nH]c(C34CC5CC(CC3C5)C4)nc21 [Compound 30, 8-(Noradamantan-3-yl)-3-isobutyl-1-methylxanthine] | 50 | 126 | 112 | 1.50 | – | – | – | – | – | – | – | – | – |
| NS(=O)(=O)c1cc(C(=O)O)c(NCc2ccco2)cc1Cl [Furosemide, reference compound] | – | – | 75 | 1.07 | – | – | – | – | – | – | – | – | effect on serum creatinine ([2]; i.p., 24 hours after 50% glycerol s.c.): showed a tendency to increase the serum creatinine |
| CCCn1c(=O)c2[nH]c(-c3ccc(S(=O)(=O)N(C)CCN(C)C)cc3)nc2n(CCC)c1=O [PD 115199, reference compound] | – | – | – | – | totally ineffective | 0.14 | 190 | 100 | 97 | 94 | 98 | 26 | – |
| CCCn1c(=O)c2[nH]c(-c3ccc(OCC(=O)NCCN)cc3)nc2n(CCC)c1=O [XAC, reference compound] | – | – | – | – | weak effect | – | – | – | – | – | – | – | – |
